Source: patent publication US20260069728A1, “MULTI-TARGETING COMPOUND AND USE THEREOF” (Chengdu Shetai Medical Technology Co., Ltd., priority 2023, published 2026)
*1 amine or outer side, *2 acyl side, *3 side chain or, on linkers, in order; H or OH if unused. Where a SMILES comes first, the peptide text is derived from it. Bridges are numbered along the chain shown (N, C = ends). [ ]: non-standard residue; d: D form. The star is where a group is joined. X1 = N#C[C@@H]1CC(F)(F)CN1C(=O)CNC(=O)c1ccnc2ccc(OCCCN3CCN(*)CC3)cc12; DOTA = O=C(O)CN1CCN(CC(=O)O)CCN(CC(=O)*)CCN(CC(=O)O)CC1; 2Nal = N[C@@H](Cc1ccc2ccccc2c1)C(=O)O; Cit = NC(=O)NCCC[C@H](N)C(=O)O; Suc = O=C(CCC(=O)[*:2])[*:1]; AEEA = NCCOCCOCC(=O)O

Tested on: SUM149PT human breast cancer cell line
Assay: Cell uptake and inhibition assay, SUM149PT
Assay type: cell-based
Experimental: The cell lines involved in the cell experiments in the test examples include: SUM149PT human breast cancer cell line, HUTU-80 human duodenal adenocarcinoma cell line, and U-118 MG human brain astrocytoma/glioblastoma cell line.
SUM149PT: Complete medium was formulated using DMEM high-glucose medium, 10% FBS, and a penicillin-streptomycin solution. The cells were cultured in a constant temperature incubator at 37° C. with 5% CO2. The culture medium was regularly replaced, and the cells were passaged. The culture medium was generally changed every 2 to 3 days. The growth of the tumor cells was observed daily under a microscope, including monitoring cell growth status, checking for adherence, examining cell morphology for any abnormalities, checking for contamination, and observing medium color for any abnormalities. Cells were passaged when they reached 80-90% confluence.
When cell confluence in the culture flask reached 80%, the cells were digested and centrifuged, and the supernatant was removed. An appropriate amount of medium was added to dilute so that each well contained 500 μL of medium for plating. After thorough mixing by pipetting, the cell suspension was seeded into a 24-well plate at a density of 5×10^5 cells per well. The plate was then placed into the incubator for continued growth. The cells were ready for cellular experiments when they reached 80% confluence.
(1) The cell uptake assay established four incubation time points: 15, 30, 60, and 120 minutes, respectively. For each time point, four groups were set up: non-inhibition group, a first single inhibition group (FAP single inhibition), a second single inhibition group (CXCR4/GRPR/αvβ3 single inhibition), and a dual inhibition group (FAP inhibitor+CXCR4/GRPR/αvβ3 inhibitor). Each group at each time point was set up with 3 triplicate wells.
(2) Cells were plated into a 24-well plate according to the cell plating procedure described above.
(3) The original culture medium was removed from the 24-well plate. Then, 400 μL of 100 mg/mL skimmed milk solution was added to each well for blocking for one hour. After removing the skimmed milk solution, each of the wells was washed three times by adding 400 μL of PBS solution. Subsequently, 146 μL of FBS-free medium was added to each well. Next, the non-inhibition group received 4 μL of cold PBS per well, while the first single inhibition group, the second single inhibition group, and the dual inhibition group received the following additions per well according to Table 3: 2 μL of non-radiolabeled first single inhibitor solution and 2 μL of cold PBS: 2 μL of non-radiolabeled second single inhibitor solution and 2 μL of cold PBS; 2 μL of non-radiolabeled first single inhibitor solution (10 mM) and 2 μL of non-radiolabeled second single inhibitor solution (10 mM). The plate was incubated at room temperature for one hour.
(4) The ^68Ga- and ^177Lu-labeled radioactive ligands were formulated by adding FBS-free medium to achieve a radioligand system concentration of 20 nM. Then, 50 μL of this radioligand system was added to each well. Each group was incubated according to the designated time points: 15, 30, 60, and 120 minutes.
(5) After the incubation was complete, the supernatant was removed, and the wells were washed three times with 400 μL of PBS solution. Then, 200 μL of 1 M NaOH solution was added to each well for cell lysis. […] Each well was then washed once with 400 μL of PBS solution, and this wash solution was also added to the corresponding radioimmunoassay tubes.
(6) The radioactivity in the cells was measured using a γ counter. A bar graph was plotted using GraphPad Prism software. The inhibition rate for each inhibition group was calculated as follows: Inhibition Rate (%)=(1−[Radioactive Count of the Inhibition Group]/[Radioactive Count of the Non-inhibition Group])×100%. […]

N#C[C@@H]1CC(F)(F)CN1C(=O)CNC(=O)c1ccnc2ccc(OCCCN3CCN(C(=O)CCC(=O)N[C@@H](CCCCNC(=O)CN4CCN(CC(=O)O)CCN(CC(=O)O)CCN(CC(=O)O)CC4)C(=O)NCCOCCOCC(=O)NCCOCCOCC(=O)N[C@@H](CCCNC(=N)N)C(=O)N[C@@H](CCCNC(=N)N)C(=O)N[C@@H](Cc4ccc5ccccc5c4)C(=O)N[C@H]4CSSC[C@@H](C(=O)N[C@@H](CCCNC(=N)N)C(N)=O)NC(=O)[C@H](CCCNC(N)=O)NC(=O)[C@H](CCCNC(=N)N)NC(=O)[C@H](Cc5ccc(O)cc5)NC(=O)[C@@H]5CCCN5C(=O)[C@H](CCCCN)NC(=O)[C@H](CCCCN)NC(=O)[C@H](CCCNC(N)=O)NC(=O)[C@H](Cc5ccc(O)cc5)NC4=O)CC3)cc12 [^68Ga-SDYD01, metal not drawn] ({X1-Suc}-K(DOTA)[AEEA][AEEA]RR[2Nal]CY[Cit]KKPYR[Cit]CR-NH2; disulfide 7-16)
cell uptake, comparison of non-inhibition, FAP single, CXCR4 single and dual inhibition groups (in words) (FAPI-04 and T140 as inhibitors): dual inhibition group exhibited the lowest uptake
cell uptake over incubation time (in words) (non-inhibition group, 15-120 minutes): slowly increased and reached a plateau from 30 to 120 minutes
